Earlier results on two compounds are cited in US20230226011A1, “Novel Pharmaceutical Composition Comprising Combination of Olopatadine and Nepafenac” (Zenvision Pharma LLP, priority 2020, published 2023).

Where a name gives a salt, the structure may show the parent alone.

The conditions of the series: for solubility in water: solvent water.

For `NC(=O)Cc1cccc(C(=O)c2ccccc2)c1N` [Nepafenac, 2-amino-3-benzoylbenzeneacetamide], the solubility in water entry was “practically insoluble”.

Regarding `CN(C)CC/C=C1/c2ccccc2COc2ccc(CC(=O)O)cc21` [Olopatadine hydrochloride, 11-[(Z)-3(Dimethylamino)propylidene]-6-11-dihydrodibenz[b,e] oxepin-2-acetic acid, hydrochloride], the solubility in water entry was “sparingly soluble”. Further, under “solvent chloroform”, the solubility in chloroform entry is “insoluble”. Also, the solubility in methanol entry (solvent methanol) was “sparingly soluble”.
